Data as given in US20080075796A1, “Compositions and Methods for Controlling Insects” (TyraTech, Inc., priority 2003, published 2008).

Assays:
Or83b receptor = target: T1, Or83b receptor (Drosophila melanogaster, UniProt Q9VNB5); assay: cAMP production in Schneider cells expressing Or83b receptor; assay type: cell-based
T1 construct: His (from vector pAc5.1/V5-His B) (C); expressed in transfected cells
T1 sequence (Q9VNB5 1-486): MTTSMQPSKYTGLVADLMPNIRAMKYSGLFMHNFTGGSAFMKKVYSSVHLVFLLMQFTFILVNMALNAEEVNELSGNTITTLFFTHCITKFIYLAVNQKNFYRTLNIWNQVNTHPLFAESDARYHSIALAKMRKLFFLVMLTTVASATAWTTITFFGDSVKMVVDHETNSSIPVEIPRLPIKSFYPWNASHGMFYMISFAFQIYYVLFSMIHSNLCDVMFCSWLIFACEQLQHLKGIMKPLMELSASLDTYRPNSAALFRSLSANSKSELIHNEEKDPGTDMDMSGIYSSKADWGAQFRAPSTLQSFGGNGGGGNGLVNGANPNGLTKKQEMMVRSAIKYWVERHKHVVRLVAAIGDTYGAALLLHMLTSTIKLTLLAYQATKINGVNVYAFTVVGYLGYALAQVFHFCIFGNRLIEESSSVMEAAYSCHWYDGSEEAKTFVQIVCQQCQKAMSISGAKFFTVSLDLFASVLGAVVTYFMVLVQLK
Method: (§1) Cells are grown on dishes and the media changed the day before the treatment. When cells are approximately 95% confluent, media is aspirated and the cells are washed one time with about 5 mL of about 27° C. insect saline (170 mM NaCl, 6.0 mM KCl, 2.0 mM NaHCO3, 17.0 mM glucose, 6.0 mM NaH2PO4, 2.0 mM CaCl2, 4.0 mM MgCl2; pH 7.0). About 20 mL of insect saline is added, and cells are harvested by gentle scraping. An aliquot of the cells is counted by hemocytometer, and the cells are then centrifuged for about 5 minutes at about 1000 RPM. Cells are resuspended to give about 3×10^6 cells per mL. IBMX is added to about 200 μM. Then about 1 mL of cell suspension is aliquoted for treatment. Forskolin (cAMP inducing agent), tyramine or different composition candidates are added, and the cells are incubated at about 27° C. for about 10 minutes.
(§2) Treated cells are centrifuged at about 13000 g for about 10 seconds. The solution is aspirated and about 1 mL of about −20° C. 70% ethanol is added. The cell pellet is disrupted by vortexing and the samples placed at about −20° C. overnight. Following the ethanol extraction, cellular debris is pelleted by centrifugation at about 13000 g for about 5 minutes. The supernatant is transferred to a tube and lyophilized to dryness in a rotary speed-vac. The resulting extract is resuspended in about 100 μL TE and used for the cAMP assay.
(§3) The cAMP assay is based on competition binding between endogenous cAMP and ^3H-cAMP to a cAMP binding protein. The ^3H-cAMP Biotrak system (Amersham Biosciences) is used for this assay as per the manufacturer's instructions. Briefly, about 50 μL of the cellular extract is incubated with about 50 μL ^3H-cAMP and about 100 μL cAMP binding protein in an ice bath for about 2-4 hours. Charcoal (about 100 μL) is then added and the solution centrifuged for about 3 minutes at about 4° C. About 200 μL of the reaction mixture is removed and levels of ^3H-cAMP are determined by scintillation counting. Levels of endogenous cAMP from the cells are calculated using a standard curve with cold cAMP ranging from about 0 to 16 pmol per reaction.
To ensure that the cAMP cascade in this cell model is functionally active, forskolin, a cAMP inducer, is used as standard agent. Cyclic-AMP levels are measured using the cAMP assay described above in Example 2. […]
To determine the effect of various plant essential oils on intracellular cAMP production and the tyramine-dependent changes of cAMP in cells expressing one of the olfactory receptors, cells from each cell model are treated with LFO (about 50 μg/ml) and BSO (about 50 μg/ml) in the presence and absence of tyramine (about 20 μM) and forskolin (about 10 μM) and intracellular cAMP is thereafter quantified using the cAMP assay described above in Example 2.

Or43a receptor = target: T2, Or43a receptor (Drosophila melanogaster, UniProt P81917, L154V); assay: cAMP production in Schneider cells expressing Or43a receptor; assay type: cell-based
T2 construct: His (from vector pAc5.1/V5-His B) (C); expressed in transfected cells
T2 sequence (P81917 whole entry L154V): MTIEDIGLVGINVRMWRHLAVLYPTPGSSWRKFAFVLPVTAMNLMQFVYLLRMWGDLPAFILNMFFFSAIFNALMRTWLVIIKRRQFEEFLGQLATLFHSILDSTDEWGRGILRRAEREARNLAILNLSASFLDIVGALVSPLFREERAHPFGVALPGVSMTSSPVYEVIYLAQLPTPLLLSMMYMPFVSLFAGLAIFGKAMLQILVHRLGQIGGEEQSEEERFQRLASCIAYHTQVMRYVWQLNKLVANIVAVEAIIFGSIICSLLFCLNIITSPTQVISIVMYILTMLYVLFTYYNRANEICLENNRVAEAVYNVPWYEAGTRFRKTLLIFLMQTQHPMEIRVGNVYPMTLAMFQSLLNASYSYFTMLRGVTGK
Method: as §1, with “When cells are approximately 95% confluent, media is aspirated and the cells are washed one time with about 5 mL of about 27° C. insect saline (170 mM NaCl, 6.0 mM KCl, 2.0 mM NaHCO3, 17.0 mM glucose, 6.0 mM NaH2PO4, 2.0 mM CaCl2, 4.0 mM MgCl2; pH 7.0).” left out
as §2
as §3, with “counting.” for “counting. Levels of endogenous cAMP from the cells are calculated using a standard curve with cold cAMP ranging from about 0 to 16 pmol per reaction.”
As such, the cells expressing olfactory receptors have a functionally active cAMP cascade.

For `NCCc1ccc(O)cc1` [tyramine], the “increase of cAMP production beyond the effect of forskolin by itself” value (Or83b receptor; forskolin-pretreated cells (about 10 μM)) was 10-13%, the “increase in cAMP production” value (Or83b receptor; tyramine about 20 μM, LFO and BSO about 50 μg/ml) was “approximately 34%” and the “change in cAMP levels” value (Or43a receptor; agent alone, tyramine about 20 μM, LFO, BSO about 50 μg/ml, forskolin about 10 μM) was “increase in cAMP levels”. For the same compound, the “change in cAMP levels, with forskolin” value (Or43a receptor; plus forskolin about 10 μM) was “increase in cAMP levels”.
